Source: publication PMC5514907, “Targeting of the breast cancer microenvironment with a potent and linkable oxindole based antiangiogenic small molecule” (Oncotarget, 2017)
“Also recorded” adds a separate entry of the source. Read-outs that look alike come from different tables or passages of the source.

Legend:
PDGFR-β [1] = molecular target: T1, PDGFR-β (Homo sapiens, UniProt P09619); test: Biochemical tyrosine kinase assay (trans-phosphorylation, GST-fusion protein); conditions: in vitro kinase activity, ± SD; read-out: IC50 PDGFR-b
T1 construct: 557-end; purchased Sigma Aldrich G8671

MCF7 = test: MTT cytotoxicity assay; assay type: cell-based; conditions: Homo sapiens
EGFR = molecular target: T2, EGFR (Homo sapiens, UniProt P00533); test: Biochemical tyrosine kinase assay (trans-phosphorylation, GST-fusion protein), negative control; conditions: in vitro kinase activity
T2 construct: 695-end; purchased Sigma Aldrich SRP5023

[2] = Hematotoxicity, blood analysis; conditions: 100 μmol/Kg daily IP, one week; vehicle 2.90 ± 0.8
T47D = test: MTT cytotoxicity assay; assay type: cell-based; conditions: Homo sapiens
SKBR3 = test: MTT cytotoxicity assay; assay type: cell-based; conditions: Homo sapiens, SK-BR-3
HCC1954 = test: MTT cytotoxicity assay; assay type: cell-based; conditions: Homo sapiens
ZR75-1 = test: MTT cytotoxicity assay; assay type: cell-based; conditions: Homo sapiens, ZR-75-1
[3] = system: panel of BrCa cell lines and HUVEC; test: MTT cytotoxicity assay, summary over all cell lines; assay type: cell-based; conditions: Homo sapiens, range over six BrCa cell lines and HUVEC
[4] = Whole embryo LC-MS/MS biodistribution (bioaccumulation); assay type: in vivo, zebrafish; conditions: 24h post drug exposure, 50 μM, data not shown
HCC1954 xenograft [5] = conditions: HCC1954, 100 μmol/Kg/day IP; for average tumor size at d18: 18 days, vehicle 428 ± 101; for neo-angiogenesis upon sacrifice: d18; for average tumor weight upon sacrifice (d18): vehicle 0.26 ± 0.07
[6] = molecular target: VEGFR-2, PDGFR-β, KIT, FLT3 and RET; test: Biochemical tyrosine kinase assay, RTK panel summary; conditions: range over the RTK targets of sunitinib; read-out: IC50 over most of the RTKs
[7] = system: E0771 BrCa murine cell line; test: In vivo antitumor efficacy, syngeneic model, ectopic implantation; set-up: species or system C57BL/6 mice; conditions: 100 μmol/Kg daily IP
Excerpt: (§1) Despite the efficacy and favourable safety profile of SAP in xenografted models of primary BrCa, a critical question that remained was its evaluation in a more clinically relevant disease model of BrCa that would involve interaction of cancer with the immune system, which is crucial for the progression of the disease.

HUVEC = test: MTT cytotoxicity assay; assay type: cell-based; conditions: Homo sapiens
KIT = molecular target: T3, KIT (Homo sapiens, UniProt P10721); test: Biochemical tyrosine kinase assay (trans-phosphorylation, GST-fusion protein); conditions: in vitro kinase activity, ± SD
T3 construct: 544-end; purchased Sigma Aldrich C0624

[8] = Pharmacokinetic evaluation in blood by LC-MS/MS; assay type: in vivo, female NOD/SCID mice; conditions: for AUC(0-t) / Tmax / Cmax: 100 umol/kg; for AUC(0-t) / Cmax: ± S.D.; for AUC(0-t): read-out: AUC0-24
Description: The in vitro efficacy of SAP was followed by its pharmacokinetic evaluation in mice. Initially, the PK parameters of SAP were compared in an oral versus IP administration (Figure 3).
Figure 3 Pharmacokinetic evaluation of SAP Female NOD/SCID mice (n = 6) were dosed per os or IP with SAP (100 μmol/Kg) and blood samples were collected at selected time points. Drug levels of SAP were monitored by LC-MS/MS. The AUC for each treatment was calculated as a measure of drug exposure over time. TEXT PRINTED IN THE PICTURE: SAP: Cmax (μmol/L) (± S.D.): 0.2 (± 0.1) (Administration Route: per os; Dose (μmol/Kg): 100); tmax (h): 1 (Administration Route: per os; Dose (μmol/Kg): 100); AUC0-24 (± S.D.) (h) x (μmol/L): 2.5 (± 2.3) (Administration Route: per os; Dose (μmol/Kg): 100); Cmax (μmol/L) (± S.D.): 27 (± 3.6) (Administration Route: Intraperitoneal; Dose (μmol/Kg): 100); tmax (h): 0.25 (Administration Route: Intraperitoneal; Dose (μmol/Kg): 100); AUC0-24 (± S.D.) (h) x (μmol/L): 50.3 (± 15.3) (Administration Route: Intraperitoneal; Dose (μmol/Kg): 100)
All animal procedures were approved by the Bioethical Committee of BRFAA based on the European Directive 86/609. For pharmacokinetic studies, female NOD/SCID mice (Charles River, Italy) were used (8–10 weeks old, n = 6 per group). Dosing solutions of SAP (100 μmol/Kg) were prepared in 20% 2-hydroxypropyl β-Cyclodextrin in sterile water (HP-b-CD). SAP was administered intraperitoneally (IP) or orally and blood samples were collected and prepared as described previously.

MDA-MB-231 = test: Wound healing/migration assay; assay type: cell-based; conditions: various concentrations, 24 hours
VEGFR-2 [9] = molecular target: T4, VEGFR-2 (Homo sapiens, UniProt P35968); test: Biochemical tyrosine kinase assay (trans-phosphorylation, GST-fusion protein); set-up: 789-end; purchased Sigma Aldrich K2643; conditions: in vitro kinase activity, ± SD
Target sequence in this assay (P35968 789-1356 limits assumed): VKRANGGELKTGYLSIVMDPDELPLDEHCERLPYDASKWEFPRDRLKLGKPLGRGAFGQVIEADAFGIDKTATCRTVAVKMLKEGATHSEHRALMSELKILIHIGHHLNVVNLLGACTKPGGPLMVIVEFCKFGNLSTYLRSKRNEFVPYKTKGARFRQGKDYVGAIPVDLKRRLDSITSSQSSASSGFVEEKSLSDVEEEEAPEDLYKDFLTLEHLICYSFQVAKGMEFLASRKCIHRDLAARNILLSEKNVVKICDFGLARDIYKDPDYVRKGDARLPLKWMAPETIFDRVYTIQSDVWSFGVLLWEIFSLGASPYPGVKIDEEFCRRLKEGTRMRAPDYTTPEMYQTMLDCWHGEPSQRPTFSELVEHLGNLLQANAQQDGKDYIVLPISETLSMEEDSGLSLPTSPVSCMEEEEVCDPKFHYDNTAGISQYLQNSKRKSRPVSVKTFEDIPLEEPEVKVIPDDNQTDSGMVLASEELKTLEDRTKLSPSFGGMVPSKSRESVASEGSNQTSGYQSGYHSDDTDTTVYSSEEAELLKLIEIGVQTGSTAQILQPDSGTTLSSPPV

RET = molecular target: T5, RET (Homo sapiens, UniProt P07949); test: as above; conditions: in vitro kinase activity, ± SD
T5 construct: 658-end; purchased Sigma Aldrich R7782

HCC1954 xenograft [10] = test: Immunohistochemistry (Ki-67, CD31) of tumor sections; assay type: in vivo, NOD/SCID mice
[11] = system: phosphorylation status of 18 kinases; test: In vivo kinase activity (PathScan intracellular signaling array) in HCC1954 tumor extracts; set-up: species or system NOD/SCID mice; conditions: HCC1954 tumors, d18
PDGFR-β [12] = molecular target: T6, PDGFR-β (Mus musculus, UniProt P05622); test: Cellular ligand-dependent autophosphorylation assay (Western blot) in NIH/3T3; assay type: cell-based; conditions: NIH/3T3, PDGF-BB stimulated, ± SD
T6 construct: host or cells: NIH/3T3

[13] = system: Tg(kdrl:gfp)^s843 transgenic embryos; assay type: in vivo; conditions: for intersomitic vessel (ISV) formation / angiogenic sprouting at 48 hpf: treated from 24 to 48 hpf
FLT3 = molecular target: T7, FLT3 (Homo sapiens, UniProt P36888); test: Biochemical tyrosine kinase assay (trans-phosphorylation, GST-fusion protein); conditions: in vitro kinase activity, ± SD
T7 construct: 571–993; purchased Sigma Aldrich F6432

[14] = Cardiotoxicity, echocardiography of LV function; assay type: in vivo, C57BL/6 female mice; conditions: for %FS (Fractional Shortening) at one week post treatment: 100 μmol/Kg daily IP, vehicle 46.34 ± 0.56
VEGFR-2 [15] = molecular target: T4, VEGFR-2; test: Cellular ligand-dependent autophosphorylation assay (Western blot) in HUVEC; assay type: cell-based; set-up: host or cells: HUVEC; conditions: VEGF165 stimulated, ± SD
Target sequence in this assay (P35968 20-1356): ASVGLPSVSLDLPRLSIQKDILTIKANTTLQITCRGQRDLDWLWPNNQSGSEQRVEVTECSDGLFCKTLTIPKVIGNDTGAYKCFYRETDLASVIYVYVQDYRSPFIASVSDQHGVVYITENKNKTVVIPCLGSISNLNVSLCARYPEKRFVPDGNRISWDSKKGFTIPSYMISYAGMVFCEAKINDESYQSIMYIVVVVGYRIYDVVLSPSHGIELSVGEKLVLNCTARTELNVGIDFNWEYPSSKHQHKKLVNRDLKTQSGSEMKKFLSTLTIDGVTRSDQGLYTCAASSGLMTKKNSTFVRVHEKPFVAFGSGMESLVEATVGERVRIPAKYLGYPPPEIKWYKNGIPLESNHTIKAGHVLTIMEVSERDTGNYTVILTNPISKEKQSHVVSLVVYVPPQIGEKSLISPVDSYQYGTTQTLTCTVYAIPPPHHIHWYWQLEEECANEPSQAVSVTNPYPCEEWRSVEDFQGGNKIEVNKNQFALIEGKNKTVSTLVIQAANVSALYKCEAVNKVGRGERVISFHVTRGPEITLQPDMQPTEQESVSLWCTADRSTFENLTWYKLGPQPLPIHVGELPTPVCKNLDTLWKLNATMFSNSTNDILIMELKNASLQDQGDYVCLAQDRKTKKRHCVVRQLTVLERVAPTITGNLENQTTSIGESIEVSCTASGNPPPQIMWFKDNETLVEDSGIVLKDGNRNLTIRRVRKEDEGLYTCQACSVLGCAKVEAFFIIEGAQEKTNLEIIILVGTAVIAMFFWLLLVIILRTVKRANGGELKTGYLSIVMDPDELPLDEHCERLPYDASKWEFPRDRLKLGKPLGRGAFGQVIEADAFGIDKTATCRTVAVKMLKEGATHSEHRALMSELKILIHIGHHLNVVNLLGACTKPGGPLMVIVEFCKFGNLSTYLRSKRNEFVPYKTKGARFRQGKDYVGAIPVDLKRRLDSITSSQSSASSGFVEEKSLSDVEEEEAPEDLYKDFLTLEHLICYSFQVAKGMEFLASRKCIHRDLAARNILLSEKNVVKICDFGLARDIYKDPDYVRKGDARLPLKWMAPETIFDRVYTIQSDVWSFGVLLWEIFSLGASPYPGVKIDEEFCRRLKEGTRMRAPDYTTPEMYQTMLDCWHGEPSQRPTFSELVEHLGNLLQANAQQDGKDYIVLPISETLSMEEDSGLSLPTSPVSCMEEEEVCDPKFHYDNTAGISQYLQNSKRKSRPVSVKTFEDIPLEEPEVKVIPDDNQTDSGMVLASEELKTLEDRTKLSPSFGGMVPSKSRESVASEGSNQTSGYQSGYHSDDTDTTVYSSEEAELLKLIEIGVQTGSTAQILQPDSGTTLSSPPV

[16] = system: E0771 BrCa murine cell line; test: In vivo antitumor efficacy, syngeneic model, orthotopic implantation; set-up: species or system C57BL/6 mice; conditions: 100 μmol/Kg daily IP
Excerpt: as §1

[17] = set-up: method as in PMID 26645560; conditions: IP, equimolar dose, previous results ref 18; cited from earlier work
in vivo [18] = conditions: female, NOD/SCID, mouse, blood, ip, 100 μmol/Kg
in vivo [19] = conditions: female, NOD/SCID, mouse, blood, ip, 100 μmol/Kg; remark: listed apart in the source
[20] = female, NOD/SCID, mouse, ip, intraperitoneal, blood
[21] = female, NOD/SCID, mouse, po, per os, blood

T6 sequence (P05622 32-1098): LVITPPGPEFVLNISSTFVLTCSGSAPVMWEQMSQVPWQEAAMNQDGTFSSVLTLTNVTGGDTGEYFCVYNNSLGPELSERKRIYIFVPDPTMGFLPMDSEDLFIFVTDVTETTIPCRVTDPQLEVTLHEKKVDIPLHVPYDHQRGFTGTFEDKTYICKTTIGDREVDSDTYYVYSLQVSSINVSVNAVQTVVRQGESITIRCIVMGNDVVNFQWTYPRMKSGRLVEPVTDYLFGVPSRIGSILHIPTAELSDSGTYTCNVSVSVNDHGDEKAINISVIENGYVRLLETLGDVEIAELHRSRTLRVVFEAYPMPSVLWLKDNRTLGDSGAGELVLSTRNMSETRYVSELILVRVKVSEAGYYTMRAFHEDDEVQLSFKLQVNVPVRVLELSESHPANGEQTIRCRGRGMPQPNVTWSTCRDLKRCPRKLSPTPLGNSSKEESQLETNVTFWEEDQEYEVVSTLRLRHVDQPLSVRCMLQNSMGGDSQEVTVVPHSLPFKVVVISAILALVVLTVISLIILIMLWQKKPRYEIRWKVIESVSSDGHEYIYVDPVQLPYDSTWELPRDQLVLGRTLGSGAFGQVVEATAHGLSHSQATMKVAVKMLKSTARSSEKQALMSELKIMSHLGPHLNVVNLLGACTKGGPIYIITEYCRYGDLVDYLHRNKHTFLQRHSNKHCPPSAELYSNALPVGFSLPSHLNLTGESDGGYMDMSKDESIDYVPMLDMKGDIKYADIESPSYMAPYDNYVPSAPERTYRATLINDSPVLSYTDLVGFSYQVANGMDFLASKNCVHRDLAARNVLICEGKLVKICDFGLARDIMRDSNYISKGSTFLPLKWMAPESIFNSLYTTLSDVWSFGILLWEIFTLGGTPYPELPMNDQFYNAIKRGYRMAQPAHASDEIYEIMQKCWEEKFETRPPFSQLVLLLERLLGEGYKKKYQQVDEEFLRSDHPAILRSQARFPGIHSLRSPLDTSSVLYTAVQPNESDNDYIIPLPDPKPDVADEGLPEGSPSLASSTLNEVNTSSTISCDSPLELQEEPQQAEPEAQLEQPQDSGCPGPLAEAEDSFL
T5 sequence (P07949 658-1063 limits assumed): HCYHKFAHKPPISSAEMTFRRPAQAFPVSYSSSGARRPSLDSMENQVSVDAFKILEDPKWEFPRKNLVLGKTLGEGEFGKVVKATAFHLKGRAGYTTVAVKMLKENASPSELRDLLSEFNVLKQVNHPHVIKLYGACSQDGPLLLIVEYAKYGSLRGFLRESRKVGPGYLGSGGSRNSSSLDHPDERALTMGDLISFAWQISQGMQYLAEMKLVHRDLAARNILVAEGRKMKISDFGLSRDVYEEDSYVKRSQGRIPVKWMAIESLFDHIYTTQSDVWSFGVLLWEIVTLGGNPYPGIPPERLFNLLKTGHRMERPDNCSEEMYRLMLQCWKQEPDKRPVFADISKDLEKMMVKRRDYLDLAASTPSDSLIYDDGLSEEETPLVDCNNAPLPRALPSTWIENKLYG
T3 sequence (P10721 544-976 limits assumed): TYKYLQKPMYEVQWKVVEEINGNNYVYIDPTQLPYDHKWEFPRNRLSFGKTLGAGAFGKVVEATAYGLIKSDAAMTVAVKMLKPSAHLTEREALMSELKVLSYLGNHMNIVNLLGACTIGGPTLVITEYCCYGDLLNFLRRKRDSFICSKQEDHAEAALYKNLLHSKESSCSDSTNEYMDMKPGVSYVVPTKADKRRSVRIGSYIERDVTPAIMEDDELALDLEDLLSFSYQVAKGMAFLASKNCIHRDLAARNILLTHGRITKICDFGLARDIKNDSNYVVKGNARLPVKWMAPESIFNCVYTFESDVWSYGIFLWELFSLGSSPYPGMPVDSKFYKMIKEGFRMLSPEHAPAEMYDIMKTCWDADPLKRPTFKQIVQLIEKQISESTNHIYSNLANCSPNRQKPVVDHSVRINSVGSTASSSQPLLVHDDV
T1 sequence (P09619 557-1106 limits assumed): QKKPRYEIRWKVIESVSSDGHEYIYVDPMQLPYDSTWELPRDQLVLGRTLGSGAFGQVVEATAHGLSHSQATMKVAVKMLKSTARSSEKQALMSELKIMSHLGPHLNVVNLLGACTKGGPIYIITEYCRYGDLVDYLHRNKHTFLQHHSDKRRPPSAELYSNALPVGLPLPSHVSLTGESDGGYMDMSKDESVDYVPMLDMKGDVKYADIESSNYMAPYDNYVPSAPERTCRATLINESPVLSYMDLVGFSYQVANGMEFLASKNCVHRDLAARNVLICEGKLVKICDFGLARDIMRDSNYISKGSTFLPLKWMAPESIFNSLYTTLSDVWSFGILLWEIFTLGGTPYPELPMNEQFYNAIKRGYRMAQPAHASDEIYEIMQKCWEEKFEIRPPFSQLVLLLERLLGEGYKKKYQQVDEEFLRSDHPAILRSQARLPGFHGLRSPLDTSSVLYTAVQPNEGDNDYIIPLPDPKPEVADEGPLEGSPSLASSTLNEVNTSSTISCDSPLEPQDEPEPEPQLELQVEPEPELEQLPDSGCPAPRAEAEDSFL
T7 sequence (P36888 571-993): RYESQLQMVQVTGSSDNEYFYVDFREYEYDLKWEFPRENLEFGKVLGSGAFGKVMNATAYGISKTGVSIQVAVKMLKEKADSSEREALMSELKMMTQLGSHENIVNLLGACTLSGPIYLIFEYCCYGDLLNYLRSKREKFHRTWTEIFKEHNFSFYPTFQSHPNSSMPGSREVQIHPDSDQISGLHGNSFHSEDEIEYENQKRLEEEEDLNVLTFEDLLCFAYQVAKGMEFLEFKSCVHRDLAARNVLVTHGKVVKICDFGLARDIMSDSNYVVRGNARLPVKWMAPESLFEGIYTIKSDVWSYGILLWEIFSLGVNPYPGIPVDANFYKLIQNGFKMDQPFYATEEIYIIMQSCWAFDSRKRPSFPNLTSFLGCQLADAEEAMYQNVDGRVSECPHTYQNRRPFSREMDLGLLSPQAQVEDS

## Cc1[nH]c(/C=C2\C(=O)Nc3ccc(F)cc32)c(C)c1C(=O)NCCN1CCNCC1 [SAP]
PDGFR-β [1]
  IC50: 0.093 µM
MCF7
  IC50: 10.3 µM
EGFR
  IC50: > 10 µM
[2]
  white blood cell populations: 2.54 ± 1.0 × 10^3 cells
T47D
  IC50: 6.5 µM
SKBR3
  IC50: 15.5 µM
HCC1954
  IC50: 13.5 µM
ZR75-1
  IC50: 14.1 µM
[3]
  IC50: 6.5 to 15.8 µM
[4]
  uptake from fish embryos: ~50%
HCC1954 xenograft [5]
  average tumor size at d18: 76 ± 52 mm^3
  neo-angiogenesis upon sacrifice: only traces of newly formed blood vessels
  average tumor weight upon sacrifice (d18): 0.05 ± 0.02 g
[6]
  IC50: 0.061 to 0.102 µM
[7]
  tumour growth versus vehicle: significant tumour growth inhibition
HUVEC
  IC50: 14.2 µM
KIT
  IC50: 0.061 µM
[8]; female, NOD/SCID, mouse, ip, 100 μmol/Kg, intraperitoneal, 100 umol/Kg, blood, 8 h post-dose, read-out: C8 h
  concentration at 8 h: 0.93 ± 0.3 µM
[8]; female, NOD/SCID, mouse, ip, intraperitoneal, 100 μmol/Kg, blood
  AUC(0-t): 50.3 ± 15.3 µM·h
[8]; [20]
  Tmax: 15 min
  Cmax: 27 ± 3.6 µM
[8]; female, NOD/SCID, mouse, po, per os, 100 μmol/Kg, blood
  AUC(0-t): 2.5 ± 2.3 µM·h
[8]; [21]
  Tmax: 60 min
  Cmax: 0.2 ± 0.1 µM
[8]; intraperitoneal, 100 umol/Kg
  time for which concentrations of at least 0.1 μmol/L are sustained post-dose: more than 8 h
[8]; single dose 100 μmol/Kg, per os or IP
  signs of discomfort or overt toxicity in treated mice: No signs of discomfort or overt toxicity
MDA-MB-231
  MDA-MB-231 migration in wound healing assay: inhibited MDA-MB-231 migration
VEGFR-2 [9]
  IC50: 0.075 µM
RET
  IC50: 0.102 µM
HCC1954 xenograft [10]; d18, vehicle 42.4 ± 8.3
  average number of CD31+ cells in tumor sections: 16.6 ± 7.1
HCC1954 xenograft [10]; d18, vehicle 82.3 ± 11.1
  Ki-67 assessed PI (proliferation index): 19.2 ± 4.9%
[11]
  phosphorylation status of kinases in tumor extracts versus vehicle: marked downregulation of pErk1/2 (Thr202/Tyr204), pAkt (Ser473) and pGSK3 (Ser9)
PDGFR-β [12]
  IC50: 0.076 ± 0.022 µM
[13]; 50 μM, 24h treatment
  toxic or off-target morphological phenotypes: No toxic or off-target morphological phenotypes
[13]; 50 μM
  intersomitic vessel (ISV) formation / angiogenic sprouting at 48 hpf: uniform GFP expression in intersomitic vessels; also recorded: minor ISV formation inhibition
[13]; 100 μM
  intersomitic vessel (ISV) formation / angiogenic sprouting at 48 hpf: inhibited angiogenic sprouting; also recorded: more profound
FLT3
  IC50: 0.069 µM
[14]
  %FS (Fractional Shortening) at one week post treatment: 42.38 ± 0.76%
[14]; before treatment
  %FS (Fractional Shortening), baseline measurement: 47.48 ± 0.91%
VEGFR-2 [15]
  IC50: 0.052 ± 0.014 µM
[16]
  tumour growth versus vehicle: significant tumour growth inhibition

## CCN(CC)CCNC(=O)c1c(C)[nH]c(/C=C2\C(=O)Nc3ccc(F)cc32)c1C [sunitinib, reference compound]
MCF7
  IC50: 11.2 µM
[2]
  white blood cell populations: 2.24 ± 0.5 × 10^3 cells
T47D
  IC50: 11.5 µM
SKBR3
  IC50: 13.2 µM
HCC1954
  IC50: 13.9 µM
[17]
  AUC0−24 h: 21.4 ± 3.6 h x μmol/L
  Cmax: 6.5 ± 0.9 µM
  Tmax: 15 min
ZR75-1
  IC50: 11.4 µM
HCC1954 xenograft [5]
  average tumor size at d18: 152 ± 57 mm^3
  neo-angiogenesis upon sacrifice: only traces of newly formed blood vessels
  average tumor weight upon sacrifice (d18): 0.07 ± 0.03 g
[7]
  tumour growth versus vehicle: significant tumour growth inhibition
[11]
  phosphorylation status of kinases in tumor extracts versus vehicle: marked downregulation of pErk1/2 (Thr202/Tyr204), pAkt (Ser473) and pGSK3 (Ser9)
PDGFR-β [12]
  IC50: 0.072 ± 0.019 µM
In vivo [18]
  concentration at 1 h: 10.8 ± 2.1 µM
[14]
  %FS (Fractional Shortening) at one week post treatment: 45.42 ± 0.11%
[16]
  tumour growth versus vehicle: significant tumour growth inhibition
In vivo [19]
  concentration at 1 h: 10.3 ± 3.7 µM
